These results are taken from patent US6723753B2, “Substituted n-benzyl-n-phenyl aminoalcohol compounds useful for inhibiting cholesteryl ester transfer protein activity” (Pharmacia Corporation, priority 2002, dated 2004).

SMILES strings stand for the structures. Like-named read-outs stand apart in the source and are kept apart here. Some results are limits rather than exact numbers.

For the assay, the target named is T1, CETP (Homo sapiens, UniProt P11597).
T1 sequence (P11597 18-493): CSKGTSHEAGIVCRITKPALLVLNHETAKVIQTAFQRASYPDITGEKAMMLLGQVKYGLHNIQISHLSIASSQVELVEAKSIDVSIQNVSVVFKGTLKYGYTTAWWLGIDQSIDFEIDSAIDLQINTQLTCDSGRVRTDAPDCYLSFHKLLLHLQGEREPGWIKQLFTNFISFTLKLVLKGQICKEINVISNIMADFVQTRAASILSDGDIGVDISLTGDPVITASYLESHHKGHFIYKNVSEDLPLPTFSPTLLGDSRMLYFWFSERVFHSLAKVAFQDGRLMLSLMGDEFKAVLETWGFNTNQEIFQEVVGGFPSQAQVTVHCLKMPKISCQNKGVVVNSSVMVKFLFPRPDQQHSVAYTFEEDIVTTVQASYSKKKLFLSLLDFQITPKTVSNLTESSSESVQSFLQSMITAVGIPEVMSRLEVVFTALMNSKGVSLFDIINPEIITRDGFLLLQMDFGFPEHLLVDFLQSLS
Kind of assay: Assay of CETP Inhibition using Purified Components (Reconstituted Buffer Assay). The format is biochemical. Details: made in house; host or cells: CHO cells (serum-free conditioned medium). The note with it: transfer of [3H]CE from HDL to LDL. Put shortly: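 Transfer of radiolabeled cholesteryl ester from HDL to LDL was run for 2 h at 37 °C in pH 7.4 Tris buffer with 1% BSA, using purified CHO-expressed human CETP. Precipitated LDL radioactivity, measured by scintillation after dextran sulfate/MgCl2 precipitation and filtration, yielded the IC50.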

[1] abbreviates: Inhibition of CETP activity in reconstituted buffer assay, read-out: IC50.
[2] abbreviates: IC50, Inhibition of CETP activity in reconstituted buffer assay.

As a reminder, the IC50 is the concentration at which inhibition is half-maximal.

As for `CC(C)(C)CNC(=O)c1cccc(N(Cc2cccc(OC(F)(F)C(F)F)c2)CC(O)C(F)(F)F)c1` (stereo not drawn) [Example 462], under setting [1], the IC50 is 12 µM. Same read-out and setting: the value for `Oc1cccc(CN(CC(O)C(F)(F)F)c2cccc(OC(F)(F)F)c2)c1` (stereo not drawn) [Example 357] was 40 µM; that for `OC(CN(Cc1cccc(OC(F)(F)C(F)F)c1)c1cccc(-c2ccc(Cl)c(Cl)c2)c1)C(F)(F)F` (stereo not drawn) [Example 561] was 1.8 µM; that for `OC(CNCc1cccc(OC(F)(F)F)c1)C(F)(F)F` (stereo not drawn) [632A] was over 50 µM.

As for `OC(CN(Cc1ccc(OC(F)(F)F)cc1)c1cccc(F)c1)C(F)(F)F` (stereo not drawn) [Example 57], the IC50 under setting [2] was 15 µM. Take `O=C(NCC(F)(F)F)c1cccc(N(Cc2cccc(OC(F)(F)C(F)F)c2)CC(O)C(F)(F)F)c1` (stereo not drawn) [Example 463]: the concentration for half-maximal inhibition (IC50) under setting [1] was 13 µM. The same measure, in the same setting: for `OC(CN(Cc1cccc(OC(F)(F)C(F)F)c1)c1cccc(SCc2ccccn2)c1)C(F)(F)F` (stereo not drawn) [Example 477] the value was 11 µM. Still for that read-out and setting: the value for `OC(CN(Cc1cccc(C(F)(F)F)c1)Cc1ccccc1Cl)C(F)(F)F` (stereo not drawn) [compound 187] was over 100 µM. In the case of `N#Cc1ccc(COc2cccc(N(Cc3cccc(OC(F)(F)C(F)F)c3)CC(O)C(F)(F)F)c2)cc1` (stereo not drawn) [Example 384], under setting [1], the IC50 came out at 1.6 µM. Same read-out and setting: for `Cc1cccc(S(=O)(=O)Nc2cccc(N(Cc3cccc(OC(F)(F)C(F)F)c3)CC(O)C(F)(F)F)c2)c1` (stereo not drawn) [Example 530] the value was over 50 µM.

Take `OC(CN(Cc1cccc(OC(F)(F)C(F)F)c1)c1cccc(OCc2ccc(-c3ccccc3)cc2)c1)C(F)(F)F` (stereo not drawn) [Example 414]: the IC50 under setting [1] came out at 4.6 µM. For the compound `N#Cc1cccc(CN(CC(O)C(F)(F)F)c2cccc(OC(F)(F)F)c2)c1` (stereo not drawn) [Example 327], the IC50 under setting [1] was over 100 µM. Still for that read-out and setting: for `OC(CN(Cc1ccc(F)cc1)Cc1cccc(C(F)(F)F)c1)C(F)(F)F` (stereo not drawn) [compound 191] the value was over 100 µM; for `CCOC(=O)c1cccc(N(Cc2cccc(OC(F)(F)F)c2)CC(O)C(F)(F)F)c1` (stereo not drawn) [Example 585, Ethyl 3-[(3,3,3-trifluoro-2-hydroxypropyl)[[(3-trifluoromethoxy)phenyl]methyl]amino]benzoate], 5.8 µM; for `COCc1cccc(CN(CC(O)C(F)(F)F)c2cccc(Oc3ccccc3)c2)c1` (stereo not drawn) [Example 627, 3-[[(3-phenoxyphenyl)(3,3,3-trifluoro-2-hydroxypropyl)amino]methyl]methoxymethylbenzene], 4.1 µM. As for `Cc1ccc(CN(CC(O)C(F)(F)F)c2ccc(C)cc2)cc1` (stereo not drawn) [Example 8], under setting [1], the IC50 is over 100 µM. Consider `COc1ccc(N(Cc2cccc(OC(F)(F)F)c2)CC(O)C(F)(F)F)cc1OC1CCCC1` (stereo not drawn) [Example 159], for which the IC50 under setting [1] turned out to be 3.5 µM.

In the case of `Cc1cc(C(=O)c2cccc(N(Cc3cccc(OC(F)(F)C(F)F)c3)CC(O)C(F)(F)F)c2)ccc1F` (stereo not drawn) [Example 578, (4-Fluoro-3-methylphenyl) [3-[[[(1,1,2,2-tetrafluoroethoxy)phenyl]methyl](3,3,3-trifluoro-2-hydroxypropyl)amino]phenyl]methanone], under setting [1], the IC50 turned out to be 0.76 µM. On the same count and under the same terms, for `OC(CN(Cc1cccc(C2CCCO2)c1)c1cccc(Oc2ccccc2)c1)C(F)(F)F` (stereo not drawn) [Example 608, 3-[(3-phenoxyphenyl)[[3-(tetrahydro-2-furanyl)phenyl]methyl]amino]-1,1,1-trifluoro-2-propanol] the value was 2.3 µM; for `OC(CN(Cc1cccc(OC(F)(F)C(F)F)c1)c1cccc(Oc2ccc3ccccc3c2)c1)C(F)(F)F` (stereo not drawn) [Example 285], 1.1 µM. For `OC(CN(Cc1cccc(Oc2ccccc2)c1)c1cccc(F)c1)C(F)(F)F` (stereo not drawn) [Example 64], the IC50 under setting [2] is 15 µM. As to `OC(CN(Cc1cccc(OC(F)(F)C(F)F)c1)c1cccc(-c2ccccn2)c1)C(F)(F)F` (stereo not drawn) [Example 451, 3-[[3-(2-pyridinyl)phenyl][[3-(1,1,2,2-tetrafluoroethoxy)phenyl]methyl]amino]-1,1,1-trifluoro-2-propanol], the half-inhibitory concentration (IC50) under setting [1] was determined as 13 µM. The same measure, in the same setting: for `COc1ccc(N(Cc2cccc(C(F)(F)F)c2)CC(O)C(F)(F)F)cc1` (stereo not drawn) [Example 51] the value was 20 µM; for `OC(CN(Cc1cccc(OC(F)(F)C(F)F)c1)c1cccc(OCc2cccc(Oc3ccccc3)c2)c1)C(F)(F)F` (stereo not drawn) [Example 426], 2.5 µM; for `CCOC(=O)c1cccc(N(Cc2cccc(OC(F)(F)C(F)F)c2)CC(O)C(F)(F)F)c1` (stereo not drawn) [Example 456B, ethyl 3-[[[3-(1,1,2,2-tetra-fluoroethoxy)phenyl]methyl](3,3,3-trifluoro-2-hydroxypropyl)amino]-benzoate], 1.5 µM. For `O=C(NCc1ccccc1)c1cccc(N(Cc2cccc(OC(F)(F)C(F)F)c2)CC(O)C(F)(F)F)c1` (stereo not drawn) [Example 465], the IC50 under setting [1] is over 50 µM. Same read-out and setting: for `Cc1ccc(CN(CC(O)C(F)(F)F)c2ccccc2C(F)(F)F)cc1` (stereo not drawn) [Example 673] the value was over 100 µM; for `CCCCN(C)C(=O)c1cccc(CN(CC(O)C(F)(F)F)c2cccc(Oc3ccccc3)c2)c1` (stereo not drawn) [compound 615], over 100 µM; for `OC(CN(Cc1cccc(OC(F)(F)C(F)F)c1)c1cccc(OCc2ccc(Br)cc2)c1)C(F)(F)F` (stereo not drawn) [Example 421], 0.49 µM. Consider `COc1cccc(CN(CC(O)C(F)(F)F)c2cccc(OC)c2)c1` (stereo not drawn) [Example 123], for which the IC50 under setting [1] was determined as 90 µM. The same measure, in the same setting: for `OC(CN(Cc1cccc(OC(F)(F)C(F)F)c1)c1cccc(Oc2ncccc2C(F)(F)F)c1)C(F)(F)F` (stereo not drawn) [Example 444] the value was 1.5 µM; for `Cc1cccc(CN(Cc2ccc(F)cc2)CC(O)C(F)(F)F)c1` (stereo not drawn) [compound 182], over 100 µM; for `O=[N+]([O-])c1cccc(COc2cccc(N(Cc3cccc(OC(F)(F)C(F)F)c3)CC(O)C(F)(F)F)c2)c1` (stereo not drawn) [Example 382], 2.3 µM.

Regarding `OC(CN(Cc1cccc(OC(F)(F)C(F)F)c1)c1cccc(OCc2c(F)cc(F)cc2F)c1)C(F)(F)F` (stereo not drawn) [Example 392], the IC50 under setting [1] turned out to be 1.4 µM.

In the case of `OC(CN(Cc1cc(F)cc(F)c1)c1cccc(OC(F)(F)F)c1)C(F)(F)F` (stereo not drawn) [Example 328], the IC50 under setting [1] is over 100 µM. Still for that read-out and setting: the value for `OC(CN(Cc1cccc(OC(F)(F)C(F)F)c1)c1cccc(Cc2ccc(F)c(Cl)c2)c1)C(F)(F)F` (stereo not drawn) [Example 524] was 1.2 µM; that for `OC(CN(Cc1cccc(OC(F)(F)C(F)F)c1)c1cccc(OCc2cc(F)cc(F)c2F)c1)C(F)(F)F` (stereo not drawn) [Example 408] was 0.75 µM; that for `OC(CN(Cc1cccc(OC(F)(F)C(F)F)c1)c1cccc(Oc2ccc(C(F)(F)F)cn2)c1)C(F)(F)F` (stereo not drawn) [Example 445] was 2.8 µM. The same measure, in the same setting: for `FC(F)C(F)(F)Oc1cccc(C2OC(C(F)(F)F)CN2c2cccc(Oc3ccccc3)c2)c1` (stereo not drawn) [Example 610, 3-(3-phenoxyphenyl)-2-[3-(1,1,2,2-tetrafluoroethoxy)phenyl]-5-(trifluoromethyl)oxazolidine] the value was 20 µM. Same read-out and setting: the value for `OC(CN(Cc1cccc(OC(F)(F)F)c1)c1cccc(Cl)c1)C(F)(F)F` (stereo not drawn) [Example 41] was 12 µM; that for `Cc1cc(Cc2cccc(N(Cc3cccc(OC(F)(F)C(F)F)c3)CC(O)C(F)(F)F)c2)ccc1Cl` (stereo not drawn) [Example 522] was 1.4 µM; that for `OC(CN(Cc1cccc(C(F)(F)F)c1)c1ccc(F)c(C(F)(F)F)c1)C(F)(F)F` (stereo not drawn) [Example 52] was 7 µM. Under setting [2], `Cc1cccc(N(Cc2cccc(C(F)(F)F)c2)CC(O)C(F)(F)F)c1` (stereo not drawn) [Example 25] returned an IC50 of 10 µM. As for `OC(CN(Cc1ccc(OCc2ccccc2)cc1)c1cccc(OC(F)(F)F)c1)C(F)(F)F` (stereo not drawn) [Example 683], the IC50 under setting [1] amounted to 20 µM. Turning to `OC(CN(Cc1ccccn1)c1cccc(OC(F)(F)F)c1)C(F)(F)F` (stereo not drawn) [Example 363], the IC50 under setting [1] came to 40 µM. On the same count and under the same terms, the value for `OC(CN(Cc1cccc(OCc2ccccc2)c1)c1cccc(OC(F)(F)F)c1)C(F)(F)F` (stereo not drawn) [Example 83] was 20 µM; that for `O=C(NCC(F)(F)C(F)(F)C(F)(F)F)c1cccc(N(Cc2cccc(OC(F)(F)C(F)F)c2)CC(O)C(F)(F)F)c1` (stereo not drawn) [Example 464] was 3 µM; that for `OC(CN(Cc1cccc(OC(F)(F)C(F)F)c1)c1cccc(Oc2ccccc2Cl)c1)C(F)(F)F` (stereo not drawn) [Example 222] was 0.27 µM.

On to `Cc1ccc(CN(CC(O)C(F)(F)F)c2cccc(Oc3ccccc3)c2)cc1-c1ccco1` (stereo not drawn) [compound 594], for which the IC50 under setting [1] worked out at 4.2 µM. On the same count and under the same terms, the value for `N#Cc1ccccc1-c1ccc(CN(CC(O)C(F)(F)F)c2cccc(OC(F)(F)F)c2)cc1` (stereo not drawn) [Example 324] was 20 µM; that for `OC(CN(Cc1cccc(OC(F)(F)F)c1)c1ccc2c(c1)OCCCO2)C(F)(F)F` (stereo not drawn) [Example 139] was 8 µM; that for `Nc1cccc(COc2cccc(N(Cc3cccc(OC(F)(F)C(F)F)c3)CC(O)C(F)(F)F)c2)c1` (stereo not drawn) [Example 434B, 3-[[3-[(3-aminophenyl)methoxy]phenyl][[3-(1,1,2,2-tetrafluoro-ethoxy)-phenyl]methyl]amino]-1,1,1-trifluoro-2-propanol] was 6.4 µM. Still for that read-out and setting: for `OC(CN(Cc1cccc(OC(F)(F)C(F)F)c1)c1cc(Oc2ccc(F)cc2)cc(C(F)(F)F)c1)C(F)(F)F` (stereo not drawn) [compound 644] the value was 1.6 µM. Still for that read-out and setting: the value for `OC(CN(Cc1cccc(OC(F)(F)C(F)F)c1)c1cccc(Nc2ccc(C(F)(F)F)cc2)c1)C(F)(F)F` (stereo not drawn) [Example 295] was 17 µM.
